Converted amounts (≈) assume the structure as drawn. Where a name gives a salt, the structure may show the parent alone.
Columns and labels:
S. aureus (MRSA) = assay: MIC, broth microdilution (CLSI); assay type: cell-based, Staphylococcus aureus; settings: Staphylococcus aureus, MRSA; compound alone
Method: (§1) Minimum Inhibitory Concentrations (MICs) were determined by the broth microdilution method in accordance with the Clinical and Laboratory Standards Institute (CLSI) guidelines. Clinical Laboratory Standards Institute: Methods for Dilution Antimicrobial Susceptability Tests for Bacteria That Grow Aerobically (8th Ed. (2009)) M07-A8. In brief, organism suspensions were adjusted to a 0.5 McFarland standard and further diluted to yield a final inoculum between 3×10^5 and 7×10^5 colony-forming units (CFU)/mL. Bacterial inocula were made in sterile, cation adjusted Mueller-Hinton Broth (Beckton Dickinson) for either Escherichia coli, Klebsiella pneumoniae, or Pseudomonas aeruginosa. Haemophilus influenzae bacterial inocula were made in sterile, cation adjusted Mueller-Hinton Broth (Beckton Dickinson) containing 0.5% yeast extract (Beckton Dickinson) plus 15 μg/ml Bovine Hematin (Sigma) and 15 μg/ml β-nicotinamide adenine dinucleotide (Sigma). Bacterial inocula were made in sterile, cation adjusted Mueller-Hinton Broth (Beckton Dickinson) for Staphylococcus aureus or sterile, cation adjusted Mueller-Hinton Broth containing 2.5% lysed horse blood (Hema Resource & Supply Inc.) for Streptococcus pneumoniae and Streptococcus pyogenes. An inoculum volume of 100 uL was added to wells (using a Tecan EVO robot) containing 2 uL of DMSO containing 2-fold serial dilutions of drug. […] All inoculated microdilution trays were incubated in ambient air at 35° C. for 18-24 hours. Following incubation, the lowest concentration of the drug that prevented visible growth as read at OD600 nm was recorded as the MIC. Performance of the assay was monitored by the use of laboratory quality-control strains and commercially available control compounds with defined MIC spectrums, in accordance with CLSI guidelines.

S. aureus (MSSA) = assay: MIC, broth microdilution (CLSI); assay type: cell-based, Staphylococcus aureus; settings: Staphylococcus aureus, MSSA; compound alone
Method: as §1

[1] = test system: Pseudomonas aeruginosa PER-1, OXA-10; assay: MIC alone against β-lactamase producing strain; assay type: cell-based; settings: Pseudomonas aeruginosa; substance alone
Method: as §1

[2] = test system: Klebsiella pneumoniae KPC2; assay: MIC alone against β-lactamase producing strain; assay type: cell-based; settings: Klebsiella pneumoniae, KPC2; substance alone
Method: as §1

[3] = test system: Pseudomonas aeruginosa AmpC (second AmpC column); assay: MIC alone against β-lactamase producing strain; assay type: cell-based; settings: substance alone, column 4
Method: as §1

[4] = test system: Pseudomonas aeruginosa AmpC (first AmpC column); assay: MIC alone against β-lactamase producing strain; assay type: cell-based; settings: substance alone, column 2
Method: as §1

Pseudomonas aeruginosa = assay: MIC, broth microdilution (CLSI); assay type: cell-based; settings: Pseudomonas aeruginosa; compound alone; read-out: MIC P. aeruginosa
Method: as §1

Escherichia coli = assay: MIC, broth microdilution (CLSI); assay type: cell-based; settings: Escherichia coli; compound alone
Method: as §1

Streptococcus pyogenes = assay: MIC, broth microdilution (CLSI); assay type: cell-based; settings: Streptococcus pyogenes; compound alone; read-out: MIC S. pyogenes
Method: as §1

Streptococcus pneumoniae = assay: MIC, broth microdilution (CLSI); assay type: cell-based; settings: Streptococcus pneumoniae; compound alone; read-out: MIC S. pneumon.
Method: as §1

Haemophilus influenzae = assay: MIC, broth microdilution (CLSI); assay type: cell-based; settings: Haemophilus influenzae; compound alone; read-out: MIC H. influenzae
Method: as §1

Klebsiella pneumoniae = assay: MIC, broth microdilution (CLSI); assay type: cell-based; settings: Klebsiella pneumoniae; compound alone; read-out: MIC K. pneumon.
Method: as §1

[5] = test system: Klebsiella pneumoniae KPC2; assay: Synergy with β-lactams (MIC of β-lactam at fixed inhibitor concentration); assay type: cell-based; settings: MIC of ceftazidime + inhibitor at fixed 4 ug/ml
Method: Synergy with β-lactams was assessed against several organisms producing a variety of β-lactamases belonging to different classes. Bush & Jacoby, Updated Functional Classification of β-Lactamases, Antimicrobial Agents and Chemotherapy, 54:969-76 (2010). In the assays, growth inhibitory activity (MIC) was measured using either two-fold dilutions of the partner β-lactam at a fixed concentration of compounds of formula (I). Compounds were prepared in DMSO, and MIC determinations using the compound of formula (I)/β-lactam combinations were done according to the CLSI guidelines. Clinical Laboratory Standards Institute: Methods for Dilution Antimicrobial Susceptability Tests for Bacteria That Grow Aerobically (8th Ed. (2009)) M07-A8. Synergy was defined as a four-fold or more reduction in the MIC of the β-lactam in the presence of the compound of formula (I), compared to the β-lactam alone.

Row | Compound | MIC (S. aureus (MRSA)) | MIC (S. aureus (MSSA)) | MIC [1] | MIC [2] | MIC [3] | MIC [4] | MIC (Pseudomonas aeruginosa) | MIC (Escherichia coli) | MIC (Streptococcus pyogenes) | MIC (Streptococcus pneumoniae) | MIC (Haemophilus influenzae) | MIC (Klebsiella pneumoniae) | MIC Klebsiella pneumoniae KPC2 [5]
1 | CC1=C[C@@H](C(=O)NC2CCNCC2)N2C[C@@H]1N(OS(=O)(=O)O)C2=O [Example 3, (2S,5R)-4-methyl-7-oxo-2-(piperidinium-4-ylcarbamoyl)-1,6-diazabicyclo[3.2.1]oct-3-en-6-yl sulfate] | > 200 µg/mL | > 200 µg/mL | – | – | – | – | > 200 µg/mL | > 200 µg/mL | 50 µg/mL | 50 µg/mL | 3.13 µg/mL | > 200 µg/mL | –
2 | CC(=O)NCCC1=C[C@@H](C(N)=O)N2C[C@@H]1N(OS(=O)(=O)[O-])C2=O.[Na+] [Ex. 25, (2S,5R)-4-(2-acetamidoethyl)-2-carbamol-7-oxo-1,6-diazabicyclo[3.2.1]oct-3-en-6-yl sulfate sodium salt] | – | – | – | – | – | – | – | – | – | – | – | – | >8 µM
3 | CC1=C[C@@H](C(N)=O)N2C[C@@H]1N(OS(=O)(=O)O)C2=O.[Na] [Example 1, (2S,5R)-2-carbamoyl-4-methyl-7-oxo-1,6-diazabicyclo[3.2.1]oct-3-en-6-yl hydrogen sulfate sodium salt] | > 200 µg/mL | 25 µg/mL | > 64 µg/mL | 8 µg/mL | > 64 µg/mL | 64 µg/mL | 200 µg/mL | 50 µg/mL | 3.13 µg/mL | 6.25 µg/mL | – | 50 µg/mL | –
4 | CC(C)(C)OC(=O)N1CCC(NC(=O)[C@@H]2C=C[C@@H]3CN2C(=O)N3OS(=O)(=O)O)CC1 [Example 14, (2S,5R)-2-(1-(tert-butoxycarbonyl)piperidin-4-ylcarbamoyl)-7-oxo-1,6-diazabicyclo[3.2.1]oct-3-en-6-yl sulfate sodium salt] | > 200 µg/mL | 100 µg/mL | – | – | – | – | > 200 µg/mL | > 200 µg/mL | 100 µg/mL | 100 µg/mL | 12.5 µg/mL | > 200 µg/mL | –
5 | CC(C)(O/N=C(\C(=O)N[C@@H]1C(=O)N2C(C(=O)[O-])=C(C[n+]3ccccc3)CS[C@H]12)c1csc(N)n1)C(=O)O [Ceftazidime, ceftazidime, reference compound] | – | – | 256 µg/mL (≈ 468 µM) | 256 µg/mL (≈ 468 µM) | 32 µg/mL (≈ 58.5 µM) | 128 µg/mL (≈ 234 µM) | – | – | – | – | – | – | –
6 | CC1=C[C@@H](C#N)N2C[C@@H]1N(OS(=O)(=O)O)C2=O.[Na] [Example 2, (2S,5R)-2-cyano-4-methyl-7-oxo-1,6-diazabicyclo[3.2.1]oct-3-en-6-yl hydrogen sulfate sodium salt] | 100 µg/mL | 100 µg/mL | > 64 µg/mL | 64 µg/mL | > 64 µg/mL | > 64 µg/mL | > 200 µg/mL | 100 µg/mL | 3.13 µg/mL | 25 µg/mL | 12.5 µg/mL | 100 µg/mL | –

More lines, now with the values ahead:

Row | MIC (S. aureus (MRSA)) | MIC (S. aureus (MSSA)) | MIC [1] | MIC [2] | MIC [3] | MIC [4] | MIC (Pseudomonas aeruginosa) | MIC (Escherichia coli) | MIC (Streptococcus pyogenes) | MIC (Streptococcus pneumoniae) | MIC (Haemophilus influenzae) | MIC (Klebsiella pneumoniae) | MIC Klebsiella pneumoniae KPC2 [5] | Compound
7 | > 200 µg/mL | > 200 µg/mL | > 16 µg/mL | > 16 µg/mL | > 16 µg/mL | > 16 µg/mL | > 200 µg/mL | > 200 µg/mL | 100 µg/mL | 50 µg/mL | 200 µg/mL | > 200 µg/mL | – | COCC1=C[C@@H](COC)N2C[C@@H]1N(OS(=O)(=O)[O-])C2=O.[Na+] [Example 13, (2S,5R)-2,4-bis(methoxymethyl)-7-oxo-1,6-diazabicyclo[3.2.1]oct-3-en-6-yl sulfate Sodium salt]
8 | > 200 µg/mL | 200 µg/mL | 16 µg/mL | 0.25 µg/mL | 16 µg/mL | 16 µg/mL | 25 µg/mL | > 200 µg/mL | 25 µg/mL | 25 µg/mL | > 200 µg/mL | > 200 µg/mL | – | CC1=C[C@@H](C(=O)NCCN)N2C[C@@H]1N(OS(=O)(=O)O)C2=O [Example 6, (2S,5R)-2-(2-aminoethylcarbamoyl)-4-methyl-7-oxo-1,6-diazabicyclo[3.2.1]oct-3-en-6-yl hydrogen sulfate]
9 | – | – | > 16 µg/mL | > 16 µg/mL | > 16 µg/mL | > 16 µg/mL | – | – | – | – | – | – | – | CC1=C[C@@H](C(=O)NCc2cc(=O)c(O)c[nH]2)N2C[C@@H]1N(OS(=O)(=O)O)C2=O [Example 8, (2S,5R)-2-((5-hydroxy-4-oxo-1,4-dihydropyridin-2-yl)methylcarbamoyl)-4-methyl-7-oxo-1,6-diazabicyclo[3.2.1]oct-3-en-6-yl hydrogen sulfate sodium salt]
10 | > 200 µg/mL | > 200 µg/mL | – | – | – | – | > 200 µg/mL | > 200 µg/mL | 50 µg/mL | 100 µg/mL | 100 µg/mL | > 200 µg/mL | – | CC(C)C1=C[C@@H](C#N)N2C[C@@H]1N(OS(=O)(=O)O)C2=O.[Na] [Example 5, (2S,5R)-2-cyano-4-isopropyl-7-oxo-1,6-diazabicyclo[3.2.1]oct-3-en-6-yl hydrogen sulfate sodium salt]
11 | > 200 µg/mL | 100 µg/mL | > 16 µg/mL | 8 µg/mL | > 16 µg/mL | > 16 µg/mL | > 200 µg/mL | 100 µg/mL | 50 µg/mL | 50 µg/mL | 50 µg/mL | 100 µg/mL | – | CC1=C[C@@H](CO)N2C[C@@H]1N(OS(=O)(=O)[O-])C2=O.[Na+] [Example 16, (2S,5R)-2-(hydroxymethyl)-4-methyl-7-oxo-1,6-diazabicyclo[3.2.1]oct-3-en-6-yl hydrogen sulfate Sodium Salt]
12 | > 200 µg/mL | – | > 64 µg/mL | 64 µg/mL | > 64 µg/mL | > 64 µg/mL | > 200 µg/mL | 100 µg/mL | 25 µg/mL | 25 µg/mL | 100 µg/mL | 50 µg/mL | – | COC[C@@H]1C=C(C(N)=O)[C@@H]2CN1C(=O)N2OS(=O)(=O)O [Example 12, (2S,5R)-4-carbamoyl-2-(methoxymethyl)-7-oxo-1,6-diazabicyclo[3.2.1]oct-3-en-6-yl hydrogen sulfate, monosodium salt]
13 | – | – | > 16 µg/mL | > 16 µg/mL | > 16 µg/mL | > 16 µg/mL | – | – | – | – | – | – | – | COCC1=C[C@@H](C(N)=O)N2C[C@@H]1N(OS(=O)(=O)[O-])C2=O.[Na+] [Example 9, (2S,5R)-2-carbamoyl-4-(methoxymethyl)-7-oxo-1,6-diazabicyclo[3.2.1]oct-3-en-6-yl hydrogen sulfate sodium salt]
14 | > 200 µg/mL | – | > 64 µg/mL | > 64 µg/mL | > 64 µg/mL | > 64 µg/mL | > 200 µg/mL | > 200 µg/mL | 50 µg/mL | 200 µg/mL | > 200 µg/mL | > 200 µg/mL | – | CC(C)C1=C[C@@H](C(N)=O)N2C[C@@H]1N(OS(=O)(=O)O)C2=O.[Na] [Example 4, (2S,5R)-2-carbamoyl-4-isopropyl-7-oxo-1,6-diazabicyclo[3.2.1]oct-3-en-6-yl hydrogen sulfate sodium salt]
15 | > 200 µg/mL | > 200 µg/mL | – | – | – | – | > 200 µg/mL | > 200 µg/mL | > 200 µg/mL | > 200 µg/mL | > 200 µg/mL | > 200 µg/mL | – | C=C(C)C1=C[C@@H](COC)N2C[C@@H]1N(OS(=O)(=O)O)C2=O.[Na] [Example 7, (2S,5R)-2-(methoxymethyl)-7-oxo-4-(prop-1-en-2-yl)-1,6-diazabicyclo[3.2.1]oct-3-en-6-yl hydrogen sulfate sodium salt]

From US9623014B2 (Entasis Therapeutics Limited, priority 2012, dated 2017)
